Measurements from PMC8329121 (Journal of Neuroimmune Pharmacology, 2021).
Positions count from the first letter of the chain named.

How the values were obtained:
[1] = target: T1, E2C/H547A hDAT (C90A/C306A/H547A) (Homo sapiens, UniProt Q01959, C306A/C90A/H547A); assay: MTSET assay, [3H]DA uptake in HEK293 cells; format: cell-based; conditions: 1 mM MTSET, HEK293, Fig. 8b
T1 construct: expressed in transfected cells; host or cells: HEK293 cells, transient, pcDNA3.1+
T1 sequence (Q01959 1-620 C90A/C306A/H547A): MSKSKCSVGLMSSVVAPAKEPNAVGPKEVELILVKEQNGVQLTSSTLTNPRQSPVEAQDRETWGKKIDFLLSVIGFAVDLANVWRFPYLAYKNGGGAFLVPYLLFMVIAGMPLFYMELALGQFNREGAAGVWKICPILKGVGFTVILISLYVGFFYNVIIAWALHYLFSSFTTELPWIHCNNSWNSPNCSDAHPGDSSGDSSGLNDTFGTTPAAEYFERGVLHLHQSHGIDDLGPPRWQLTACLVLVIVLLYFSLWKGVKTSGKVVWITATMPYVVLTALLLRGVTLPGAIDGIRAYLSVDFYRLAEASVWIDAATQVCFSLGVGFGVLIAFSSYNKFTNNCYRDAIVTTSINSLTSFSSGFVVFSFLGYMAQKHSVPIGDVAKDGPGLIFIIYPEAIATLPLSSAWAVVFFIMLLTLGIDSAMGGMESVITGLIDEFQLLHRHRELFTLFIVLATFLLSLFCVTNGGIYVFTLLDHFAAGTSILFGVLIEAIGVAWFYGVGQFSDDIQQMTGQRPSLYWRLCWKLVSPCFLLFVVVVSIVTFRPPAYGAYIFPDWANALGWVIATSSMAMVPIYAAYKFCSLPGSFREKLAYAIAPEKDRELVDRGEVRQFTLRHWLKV
Source text: (§1) All mutants on hDAT were generated based on the predictions made using our computational model, as described previously using site-directed mutagenesis based on the wild-type hDAT (WT hDAT) sequence (NCBI, cDNA clone MGC: 164,608 IMAGE: 40,146,999) (Quizon et al. [2016]). The combination of hDAT mutations on Asp206 and His547 (Aspartic acid 206 to leucine and histidine 547 to alanine, D206L/H547A) were predicted to eliminate two hydrogen bonds between Tat and hDAT. In addition, the combination of mutations on Tyr88, Asp206, and His547 (tyrosine88 to phenylalanine and aspartic acid 206 to leucine and histidine 547 to alanine, Y88F/D206L/H547A) were predicted to eliminate three hydrogen bonds from the Tat-hDAT complex. Two extracellular cysteine90 and cysteine306 residues on WT hDAT were mutated to alanine as E2C hDAT (C90A/C306A hDAT), rendering the E2C hDAT MTSET-insensitive background (Pedersen et al. [2014]). A triple mutation of the two cysteine90 and 306 residues to alanine and […] to cysteine on WT hDAT was generated as E2C-I159C hDAT (C90A/C306A/I159C) for MTSET-sensitive construct. A combination of C90A/C306A/H547A was generated as E2C/H547A hDAT for MTSET-insensitive control for H547A. To determine whether H547A-enhanced DA transport is mediated by changing transporter conformation, two combinations of C90A/C306A/I159C/H547A and C90A/C306A/I159A/H547A were generated as E2C-I159C/H547A and E2C-I159A/H547A for positive and negative controls for MTSET sensitive background, respectively. Synthetic cDNA encoding hDAT subcloned into pcDNA3.1+ (provided by Dr. Haley E Melikian, University of Massachusetts) was used as a template to generate mutants using site-directed mutagenesis performed by GENEWIZ (South Plainfield, NJ). DNA sequencing was also performed by GENEWIZ to confirm the sequences of the mutant constructs. Plasmid DNA were propagated and purified using the Qiagen Hi-speed maxi prep plasmid DNA isolation kit (Qiagen, Valencia, CA, USA).
(§2) This assay was performed based on the previous report with minor modifications (Loland et al. [2004], [2008]). First, we generated five WT hDAT based plasmid construct for MTSET-insensitive or sensitive background as we described above. HEK293 cells were grown in poly-d-lysine coated plates at a density of 1 × 10^5 cells/cm^2 were transfected with different E2C- associated hDAT background constructs: E2C hDAT, E2C-I159C hDAT, E2C/H547A hDAT, E2C-I159C/H547A or E2C-I159A/H547A. Twenty-four hours after the transfection, cells were washed twice with 1× KRH buffer, and preincubated with or without the presence of 10 µM nomifensine (for non-specific uptake) and MTSET for 10 min at room temperature. MTSET at 1 mM final concentration was chosen based on a pilot study on optimizing MTSET concentrations (0.1, 0.5 or 1.0 mM). […] Because MTSET is easily hydrolyzed in solution, the amount needed for a 10 × stock was weighed out and dissolved in 1 × KRH buffer just right before adding to the assigned wells, for a 10-fold dilution (final concentration of 1 mM in final volume of 250 µl). […] Cells were immediately washed twice with ice-cold 1 × KRH buffer to terminate the reaction and were lysed rapidly with the addition of 1 % SDS. Cell lysates were collected after incubation for 1 h at room temperature and radioactivity was determined the next day.

[2] = target: T2, E2C-I159C hDAT (C90A/C306A/I159C) (Homo sapiens, UniProt Q01959, C306A/C90A/I159C); assay: MTSET assay, [3H]DA uptake in HEK293 cells; format: cell-based
T2 construct: expressed in transfected cells; host or cells: HEK293 cells, transient, pcDNA3.1+
T2 sequence (Q01959 1-620 C90A/I159C/C306A): T1 sequence (Q01959 1-620 C90A/C306A/H547A) with I159C, A547H
Source text: as §1, §2

C[N+](C)(C)CCSS(C)(=O)=O [MTSET, [2-(trimethylammonium)ethyl]-methanethiosulfonate]
effect of MTSET on DA uptake [1]: no effect | inhibition of [3H]DA uptake relative to no MTSET addition ([2]; 1 mM MTSET, 10 min, HEK293, pilot study Fig. 8a): 55% | [3H]DA uptake in the presence of MTSET ([2]; 1 mM MTSET, HEK293, Fig. 8b): 46.0 ± 6.0 | effect on [3H]DA uptake ([2]; MTSET 0.1, 0.5, 1.0 mM, pilot study Fig. 8a): concentration-dependently inhibited
